Experimental data reported in patent publication US5670487A, “Composition for protecting and/or combating blemishes on and/or ageing of the skin, and uses thereof” (L'Oreal, priority 1995, dated 1997).

Experiments:
[1] = system: skin; experiment: UVA sun protection factor (PF = protected MPD/non-protected MPD) on the back of volunteers; assay type: in vivo, human (healthy adults of both sexes); conditions: for UVA skin protection (assessment in words): based on the UVA sun protection factors 1.6, 2.7 and 3.4; for UVA sun protection factor: 2±0.02 μl/cm^2, UVA 320-400 nm, read approximately 2 h after exposure
Experimental: Potentiation of the sun protection factor
The aim of the test is to show the ability of the compositions of the invention to protect the skin against UVA by virtue of a high UVA protection factor.
Ten individuals were tested. They were healthy adults of both sexes. An area of skin located on the back of each of the volunteers was subjected to solar exposure after defining the skin type. The exposure was carried out with a UVA spectrum alone (320 nm to 400 nm), supplied by a 150 W xenon lamp fitted with a WG 335 filter 3 mm in thickness and a UG 11 filter 1 mm in thickness. The UV radiation was conducted by 6 liquid, flexible light guides, making it possible to deliver doses of from 6 to 45 joules/cm^2 in a 50% geometric progression.
The application was a single dose, in the open air, of 2±0.02 μl/cm^2, i.e., approximately 0.15 ml of test product per individual, on an area of 75 cm^2, measured with a sterile 1 ml Tuberculin syringe graduated to 1/1000 and having a centered cone.
Exposure was approximately 15 min after application of the product. Macroscopic examination of the exposed areas of the skin was performed approximately 2 h after exposure, to evaluate the immediate and permanent pigmentation reactions. The minimum pigmenting dose on the area protected by the product applied (protected MPD) and that on the area in which no product had been applied (non-protected MPD) was performed simultaneously.
The protection factor PF is then calculated as follows:
PF=protected MPD/non-protected MPD
The test was carried out with 3 compositions, each having the same support, containing arbutin, the UV screening agent (terephthalylidene dicamphor sulphonic acid), and the combination of arbutin and the UV screening agent, respectively.

[2] = Anti-free-radical activity: inhibition of the production of ethylene from methionine under UVA; assay type: biochemical; conditions: UVA 365 nm, 1 J/cm^2, pH 7.4, average of 3 tests
Experimental: The following were introduced in order into a Petri dish 32 mm in diameter:
1.4 ml of 50 mM phosphate buffer (pH=7.4), 100 μl of 200 mM methionine solution
100 μl of 4 mM ferric chloride solution,
100 μl of 4 mM EDTA (ethylenediaminetetraacetic acid) solution, 100 μl of 400 mM NADH (nicotinamideadeninedinucleotide, reduced form) solution, 100 μl of 2 mM riboflavin solution.
Total volume of the mixture: 2 ml.
The Petri dish was then placed in an aluminum crucible and covered with a quartz cell so as to be exposed to UVA rays (365 nm) at a dose of 1 J/cm^2. The mixture, composed of NADH, riboflavin, ferric chloride and EDTA, when subjected to exposure to the UVA rays, generates reduced oxygen species: O2 .cndot.^-, H2 O2, and mainly the hydroxyl radical .cndot.OH. The latter reacts with methionine to release ethylene. The amount of ethylene was measured by gas chromatography.
The smaller the amount of free radicals formed, the smaller the amount of ethylene released. The results are expressed as a percentage of inhibitory power corresponding to the percentage decrease in the production of ethylene relative to the control (containing 100 μl of phosphate buffer replacing the test product).
The following substances studied were introduced using a micropipette: […]
terephthalylidene dicamphor sulphonic acid […]

Row | Structure (SMILES) | UVA skin protection (assessment in words) [1] | UVA sun protection factor ([1]; composition with 5% arbutin) | % inhibition (percentage decrease in the production of ethylene relative to the control) ([2]; 0.2% arbutin) [%] | UVA sun protection factor ([1]; composition with 1% terephthalylidene dicamphor sulphonic acid) | % inhibition (percentage decrease in the production of ethylene relative to the control) ([2]; 0.2% terephthalylidene dicamphor sulphonic acid) [%]
1 | OC[C@H]1O[C@@H](Oc2ccc(O)cc2)[C@H](O)[C@@H](O)[C@@H]1O [arbutin, hydroquinone-beta-D-glucopyranoside] | negligible skin protection | 1.6 | 39.0 ± 0.6 | – | –
2 | CC1(C)C2CCC1(CS(=O)(=O)O)C(=O)C2=Cc1ccc(C=C2C(=O)C3(CS(=O)(=O)O)CCC2C3(C)C)cc1 [benzene-1,4-bis(3-methylidenecamphor-10-sulphonic acid)] | significant skin protection | – | – | 2.7 | 44.7 ± 1.7
